Measurements from patent US11883526B2 (priority 2019, dated 2024).

Experiments:
subjects with TRD = conditions: human, in vivo, other: intranasal
Experimental: FIGS. 53 and 54 present means for blood pressure over time by treatment group in the maintenance phase.
Transient blood pressure increases peaked for the esketamine group at approximately 40 minutes post dose and returned closer to predose levels by 1.5 hours post dose.

adult subjects with TRD = conditions: double-blind phase
Experimental: The MOAA/S was used to measure treatment-emergent sedation, with correlation to levels of sedation defined by the American Society of Anesthesiologists (ASA) continuum. The MOAA/S scores range from 0=no response to painful stimulus (corresponds to ASA continuum for general anesthesia) to 5=readily responds to name spoken in normal tone (awake; corresponds to ASA continuum for minimal sedation).
On each intranasal dosing day, the MOAA/S was performed every 15 minutes from pre-dose to t=+1.5 hours post-dose. If the score was ≤3 at any time during the 1.5 hours post-dose interval, the MOAA/S was performed every 5 minutes until a score of 4 is reached (at which point a frequency of every 15 minutes can be resumed until t=+1.5 hours post dose). […] For subjects with a score of 4, the assessment was repeated every 15 minutes. […]
The Modified Observer's Assessment of Alertness/Sedation (MOAA/S) was used to measure treatment-emergent sedation with correlation to levels of sedation defined by the American Society of Anesthesiologists (ASA) continuum. The MOAA/S scores ranged from 0 (No response to painful stimulus; corresponds to ASA continuum for general anesthesia) to 5 (Readily responds to name spoken in normal tone [awake]; corresponding to ASA continuum for minimal sedation).

[1] = test system: elderly subjects with TRD; type: in vivo, human; conditions: each dosing day
From the text: The Modified Observer's Assessment of Alertness/Sedation (MOAA/S) was used to measure treatment-emergent sedation with correlation to levels of sedation defined by the American Society of Anesthesiologists (ASA) continuum. The MOAA/S scores range from 0 (No response to painful stimulus; corresponds to ASA continuum for general anesthesia) to 5 (Readily responds to name spoken in normal tone [awake]; corresponds to ASA continuum for minimal sedation). The proportion of subjects with sedation was <4% for the esketamine group for each dosing day.

[2] = single dose study, 72 mg intranasal
Experimental: This study includes a single dose and 14-day repeated dose neurotoxicity studies with intranasally administered esketamine in female rats 12 to 14 weeks of age. These studies were conducted to investigate whether single or repeated intranasal administrations of esketamine induced neurodegenerative changes in the rat brain. The study results were used to estimate an esketamine exposure-based safety margin compared with the maximum dose of esketamine administered intranasally to depressed adult patients in clinical trials.
The vehicle- and the 36 and 54 mg-dosed groups consisted of 24 animals per group, while the 72 mg-dosed and positive control groups involved 30 animals per group. Four satellite animals were added to the esketamine HCl-dosed groups of main study animals for toxicokinetic (TK) purposes. In these animals the plasma exposure to esketamine was measured on the day of dosing at various time points up to and including 24 hours after the first instillation.

Q: Which results are given for `CN[C@]1(c2ccccc2Cl)CCCCC1=O` [esketamine, (S)-2-(2-chlorophenyl)-2-(methylamino)cyclohexanone]?
A: blood pressure returned closer to predose levels by (subjects with TRD): ≤ 1.5 hours post dose; time of peak of transient blood pressure increase post dose (subjects with TRD): approximately 40 minutes; sedation (MOAA/S) resolved by (adult subjects with TRD): ≤ 1.5 hours postdose; proportion of subjects with sedation (post dose MOAA/S score ≤3) [1]: < 4%; AUC-based safety margin compared with the maximum 84 mg clinical dose [2]: ~86 fold; Cmax-based safety margin compared with the maximum 84 mg clinical dose [2]: approximately 60 fold
